Measurements taken from patent publication US20140018371A1, “Modulators Of The GPR119 Receptor And The Treatment Of Disorders Related Thereto” (ARENA PHARMACEUTICALS, INC., priority 2011, published 2014).

Key:
hGPR119 = molecular target: T1, hGPR119 (Homo sapiens, UniProt Q8TDV5); test: HTRF cAMP assay in CHO-K1 cells stably expressing the GPR119 receptor; type: cell-based
T1 construct: expressed in transfected cells
T1 sequence (Q8TDV5 2-335 limits assumed): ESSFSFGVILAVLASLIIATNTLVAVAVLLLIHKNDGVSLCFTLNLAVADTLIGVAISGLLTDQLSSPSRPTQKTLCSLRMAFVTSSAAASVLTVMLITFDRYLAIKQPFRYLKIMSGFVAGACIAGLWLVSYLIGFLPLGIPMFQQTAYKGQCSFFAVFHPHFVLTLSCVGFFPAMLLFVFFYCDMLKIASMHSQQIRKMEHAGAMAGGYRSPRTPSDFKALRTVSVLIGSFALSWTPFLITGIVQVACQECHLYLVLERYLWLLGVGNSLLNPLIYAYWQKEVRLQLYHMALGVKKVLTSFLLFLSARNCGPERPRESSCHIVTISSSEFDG
Description: GPR119 agonists were evaluated in an HTRF® cAMP detection assay according to the manufacturer's instructions (Cisbio, cAMP Dynamic 2 Assay Kit; #62AM4PEJ) using CHO-K1 cells stably expressing the GPR119 receptor. Briefly, CHO-K1 cells were transduced with a lentiviral vector encoding the nucleotide sequence of GPR119 (NCBI mRNA and protein reference sequences: NM_178471.2 & NP_848566, (GPR119 has also been referred to as Glucose-Dependent Insulinotropic Receptor (GDIR)). The N-terminus of the GPR119 nucleotide sequence was modified to replace the first, methionine-coding codon with a nucleotide sequence coding for a standard, nine amino acid, hemagglutinin tag. Following transduction, cells expressing the GPR119 receptor were isolated and a single clone was isolated following standard dilution-cloning procedures. On the day of the assay, cultured CHO-GPR119 cells were harvested, suspended in assay buffer and plated into 384-well assay plates (PerkinElmer Proxiplate #6008280) at a density of 2,000 cells per well. A cAMP standard curve was added to each plate. Test compounds were solubilized in DMSO, serially diluted in DMSO and then diluted in assay buffer before adding to the cells. Test compounds were evaluated in triplicate, using 10-point, 5-fold serial dilutions starting at 10 μM. The final DMSO concentration in the assay was 0.5%. Compounds and cells were incubated for 1 h at room temperature and then detection reagents were added to each well (cAMP-D2 in cell lysis buffer, followed by europium cryptate-labeled anti-cAMP antibody). Plates were then incubated at room temperature for 1 h prior to reading. Time-resolved fluorescence measurements were collected on PerkinElmer Envision™ or BMG Pherastar™ microplate readers. The compound N-(2-fluoro-4-(methylsulfonyl)phenyl)-6-(4-(3-isopropyl-1,2,4-oxadiazol-5-yl)piperidin-1-yl)-5-nitropyrimidin-4-amine was used as a positive control in each runset while assay buffer containing 0.5% DMSO was used as the negative control. The HTRF® assay was used to determine EC50 values for GPR119 agonists.

Male 129SVE mice [1] = test: Oral glucose tolerance test (oGTT) in male 129SVE mice; type: in vivo; details: for plasma glucose level, Mean: oGTT, in mg/dL (unit assumed)
Description: Male 129SVE mice (approximately 8-week old) were fasted for 18 h and randomly grouped (n=6) to receive a GPR119 agonist (Compound 8) at 3, or 30 mg/kg (mg/kg body weight). The compound was delivered orally via a gavage needle (p.o., volume at 4 mL/kg) 30 minutes prior to glucose bolus (3 g/kg) (time=−30 min in FIG. 1), with a separate group receiving vehicle (20% hydroxypropyl-beta-cyclodextrin) as control. At time 0 min the glucose bolus was administered. Levels of blood glucose were assessed using a glucometer (One-Touch Ultra™, LifeScan) at time −30 minute (prior to compound administration), at 0 min (at time when glucose bolus was given), and at 20, 40, 60, 120 minutes post glucose bolus. The plasma glucose level (Table 1) and glucose excursion curve (FIG. 1) are shown. Glucose excursion AUC (area under the curve) reduction in compound treated animals relative to vehicle control is given in FIG. 2.

Male 129SVE mice [2] = test: In vivo incretin hormone GIP release (plasma total GIP, ELISA); details: 3 or 30 mpk p.o., blood sample after 45 min
Description: Male 129SVE mice (approximately 8-week old) were fasted for 18 h and randomly grouped (n=6) to receive a GPR119 agonist (Compound 8) at 3 or 30 mpk dose (mg/kg body weight). Compound 8 were delivered orally via a gavage needle (p.o., volume at 4 mL/kg), and after 45 min a blood sample was collected to determine plasma total GIP levels. A separate group received vehicle (PET: 80% PEG:10% Ethanol:10% Tween80™) as control. Plasma GIP levels were determined using a Total GIP ELISA kit from Millipore.

SMILES	EC50 (hGPR119) [nM]	also measured
CC(C)(C)OC(=O)N1CCC(CO[C@H]2CC[C@H](c3ccc(S(C)(=O)=O)cc3)CC2)CC1 [Compound 1, tert-Butyl 4-((4-(4-(Methylsulfonyl)phenyl)cyclohexyloxy)methyl)piperidine-1-carboxylate]	16	
CCc1cnc(N2CCC(CO[C@H]3CC[C@H](c4ccc(S(C)(=O)=O)cc4F)CC3)CC2)nc1 [Compound 8, 5-Ethyl-2-(4-(((1r,4r)-4-(2-fluoro-4-(methylsulfonyl)phenyl)cyclohexyloxy)methyl)piperidin-1-yl)pyrimidine]		effect on blood glucose after glucose challenge (Male 129SVE mice [1]; 129SVE mice, 3 or 30 mg/kg p.o., 30 min prior to glucose bolus (3 g/kg)): lowered blood glucose; plasma glucose level, Mean (Male 129SVE mice [1]; 3 mpk p.o., 20 min post glucose bolus): 201.3; plasma glucose level, Mean (Male 129SVE mice [1]; 3 mpk p.o., 40 min post glucose bolus): 250.2; plasma glucose level, Mean (Male 129SVE mice [1]; 3 mpk p.o., 60 min post glucose bolus): 262.8; plasma glucose level, Mean (Male 129SVE mice [1]; 3 mpk p.o., 120 min post glucose bolus): 163.3; plasma glucose level, Mean (Male 129SVE mice [1]; 3 mpk p.o., time 0 min relative to glucose bolus): 112.5; plasma glucose level, Mean (Male 129SVE mice [1]; 3 mpk p.o., time −30 min relative to glucose bolus (prior to compound administration)): 88.7; plasma glucose level, Mean (Male 129SVE mice [1]; 30 mpk p.o., 20 min post glucose bolus): 163.5; plasma glucose level, Mean (Male 129SVE mice [1]; 30 mpk p.o., 40 min post glucose bolus): 204.2; plasma glucose level, Mean (Male 129SVE mice [1]; 30 mpk p.o., 60 min post glucose bolus): 193.2; plasma glucose level, Mean (Male 129SVE mice [1]; 30 mpk p.o., 120 min post glucose bolus): 107.5; plasma glucose level, Mean (Male 129SVE mice [1]; 30 mpk p.o., time 0 min relative to glucose bolus): 96.0; plasma glucose level, Mean (Male 129SVE mice [1]; 30 mpk p.o., time −30 min relative to glucose bolus (prior to compound administration)): 72.2; effect on plasma total GIP release (Male 129SVE mice [2]): stimulates the release of GIP
CC(C)OC(=O)N1CCC(CO[C@H]2CC[C@H](c3ccc(S(C)(=O)=O)cc3F)CC2)CC1 [Compound 11, Isopropyl 4-(((1r,4r)-4-(2-Fluoro-4-(methylsulfonyl)phenyl)cyclohexyloxy)methyl)piperidine-1-carboxylate]	21	
CC(C)(C)OC(=O)N1CCC(CO[C@H]2CC[C@@H](c3cnc(S(C)(=O)=O)cn3)CC2)CC1 [Compound 12, tert-Butyl 4-((-4-(5-(Methylsulfonyl)pyrazin-2-yl)cyclohexyloxy)methyl)piperidine-1-carboxylate]	707	
CC(C)(F)c1noc(N2CCC(CO[C@H]3CC[C@H](c4ccc(S(C)(=O)=O)cc4F)CC3)CC2)n1 [Compound 16, 5-(4-(((1r,4r)-4-(2-Fluoro-4-(methylsulfonyl)phenyl)cyclohexyloxy)methyl)piperidin-1-yl)-3-(2-fluoropropan-2-yl)-1,2,4-oxadiazole]	38	
CS(=O)(=O)c1ccc([C@H]2CC[C@H](OCC3CCN(c4ncc(C(F)(F)F)cn4)CC3)CC2)nc1 [Compound 18]	134	
CC(C)c1noc(N2CCC(COC3CC=C(c4ccc(S(C)(=O)=O)cc4)CC3)CC2)n1 (stereo not shown) [Compound 23, 3-Isopropyl-5-(4-((4-(4-(Methylsulfonyl)phenyl)cyclohex-3-enyloxy)methyl)piperidin-1-yl)-1,2,4-oxadiazole]	15	
Cc1nc(S(C)(=O)=O)ccc1[C@H]1CC[C@H](OCC2CCN(c3ncc(C(F)(F)F)cn3)CC2)CC1 [Compound 31, 2-(4-(((1r,4r)-4-(2-Methyl-6-(methylsulfonyl)pyridin-3-yl)cyclohexyloxy)methyl)piperidin-1-yl)-5-(trifluoromethyl)pyrimidine]	42	
CC(C)OC(=O)N1CCC(CO[C@H]2CC[C@H](c3ccc(S(C)(=O)=O)cc3)CC2)CC1 [Compound 38, Isopropyl 4-((4-(4-(Methylsulfonyl)phenyl)cyclohexyloxy)methyl)piperidine-1-carboxylate]	57	
CSc1ccc([C@H]2CC[C@H](OCC3CCN(C(=O)OC(C)(C)C)CC3)CC2)cc1 [Compound 41, tert-Butyl 4-((4-(4-(Methylthio)phenyl)cyclohexyloxy)methyl)piperidine-1-carboxylate]	505	
CC(C)(C)OC(=O)N1CCC(CO[C@H]2CC[C@H](c3ccc(S(C)(=O)=O)cc3F)CC2)CC1 [Compound 42, tert-Butyl 4-((4-(2-Fluoro-4-(methylsulfonyl)phenyl)cyclohexyloxy)methyl)piperidine-1-carboxylate]	6.4	
CC(C)(C)OC(=O)N1CCC(CO[C@H]2CC[C@H](c3ccncc3C#N)CC2)CC1 [Compound 49, tert-Butyl 4-(((1r,4r)-4-(3-Cyanopyridin-4-yl)cyclohexyloxy)methyl)piperidine-1-carboxylate]	1030	
CC(C)(C)OC(=O)N1CCC(COC2CC=C(c3ccncc3C#N)CC2)CC1 (stereo not shown) [Compound 50, tert-Butyl 4-((4-(3-Cyanopyridin-4-yl)cyclohex-3-enyloxy)methyl)piperidine-1-carboxylate]	38	
CC(C)(C)OC(=O)N1CCC(CO[C@H]2CC[C@H](c3ccncc3F)CC2)CC1 [Compound 56, tert-Butyl 4-(((1r,4r)-4-(3-Fluoropyridin-4-yl)cyclohexyloxy)methyl)piperidine-1-carboxylate]	63	
CS(=O)(=O)c1ccc([C@H]2CC[C@H](OCC3CCN(Cc4nc(C(F)(F)F)no4)CC3)CC2)c(F)c1 [Compound 60, 5-((4-(((1r,4r)-4-(2-Fluoro-4-(methylsulfonyl)phenyl)cyclohexyloxy)methyl)piperidin-1-yl)methyl)-3-(trifluoromethyl)-1,2,4-oxadiazole]	200	
